Experimental data taken from PMC11302729, “Repurposing Hsp90 inhibitors as antimicrobials targeting two-component systems identifies compounds leading to loss of bacterial membrane integrity” (Microbiology Spectrum, 2024).

How the values were obtained:
Hsp90α = target: T1, Hsp90α (Homo sapiens, UniProt P07900); experiment: Hsp90 fluorescence polarization assay (displacement of FITC-labeled geldanamycin); settings: compound concentration that decreases geldanamycin binding by 50%
T1 construct: expression strains containing GST-Hsp90 N(9-236) plasmid (Addgene: 22481); host or cells: E. coli BL21(DE3)
Protocol: The compounds were tested for inhibition of HK autophosphorylation in vitro. Of the 24 derivatives, 6 inhibited in vitro autophosphorylation of E. coli EnvZ at a concentration of 2 mM. […] Each compound has similar IC50 values for PhoR and EnvZ, indicating good potential for polypharmacology. We discounted the notion that DPP-induced aggregation of HKs was the reason for inhibiting autophosphorylation using native gel protein electrophoresis of HK proteins with and without DPPs (data not shown). We also investigated if the four DPP inhibiting HK autophosphorylation would also bind to Hsp90α in a fluorescence polarization assay. In this assay, inhibitors were tested for their ability to displace FITC-labeled geldanamycin (a well-known Hsp90 inhibitor) from the ATP pocket ([40]). All the compounds tested displaced FITC-labeled geldanamycin with IC50s in the nM range (Table 2).
The Hsp90α […] domain was purified as described by Goode et al. ([57]). E. coli BL21(DE3) expression strains containing GST-Hsp90 N(9-236) plasmid (Addgene: 22481) were grown in 1 L LB media supplemented with 100 µg/mL ampicillin at 25°C and shaking (200 r.p.m.) to OD600 0.5, and protein expression was induced by the addition of 1 mM IPTG, and the culture was grown at 25°C and shaking (200 r.p.m.) overnight. Cells were then pelleted (4,000 g, 4°C), resuspended in 40 mL buffer A2 (50 mM Tris-HCl pH 8.0, 0.5 M NaCl, and 1 mM phenylmethanesulfonyl fluoride), sonicated (4°C, 5 min with pulses of 15 sec at intervals of 1 min), and centrifuged (11,000 g, 4°C, 60 min). Supernatant was passed through a 5-mL Glutathione Sepharose 4B (GE Healthcare) equilibrated with buffer A2 using an AKTA system (GE Healthcare). Column was washed using buffer A2, and a linear gradient of glutathione (0–0.25M) in buffer A2 was applied. Fractions containing Hsp90α were collected, mixed, and concentrated by ultrafiltration.
Competitive binding of inhibitors to Hsp90 was measured by fluorescence polarization assay as previously reported ([58]). Inhibitors were assayed in different concentrations (range 0–1,000 µM) in a Nunc black, low binding 384-well plate (Thermo Scientific). Each reaction was prepared in reaction mix (100 mM Tris-Cl, pH 7.4, 20 mM KCl, 6 mM MgCl2, 2 mM DTT, and 0.1 mg/mL bovine serum albumin) in a final volume of 50 µL containing 350 nM Hsp90 and 100 nM geldanamycin FITC labeled (BPS Bioscience, San Diego, CA, USA) and the inhibitor in the correspondent concentration. Blank control containing no enzyme and no geldanamycin, enzyme-positive control containing no inhibitor, and enzyme-negative control containing no Hsp90 were included. Fluorescence polarization was then measured using Tecan SPARK (Tecan, Grödig, Austria) at wavelengths λex = 485 nm and λem = 530 nm.

HEK293 cells = experiment: Cell imaging of HEK293 cells; format: cell-based; settings: LC20, 24 hours exposure, 40× amplification
Protocol: HEK293 cells were plated in 24-well plates on exposure medium for 24 hours (500,000 cells/well). Cells were exposed to a subset of compounds at a lethal concentration of 20% (LC20). After 24 hours exposure, cells were fixed with 2% glutaraldehyde for 15 min, washed with water, permeabilized with 0.5% Triton-X, washed twice with water, and stained with Toluidine blue 0.3%. For 100× amplification, cells were harvested by pipetting up and down in 250 µL of exposure medium. Cells from three wells treated with the same compound were pooled and centrifuged for 5 min at 1,500 r.p.m. The cell pellet was fixed in 0.1 M cacodylate buffer containing 2% glutaraldehyde (vol/vol) (pH 7.4). After 1 hour on ice, the pellet was washed with 0.1 M cacodylate buffer and fixed in 0.1 M cacodylate buffer containing 1% osmium tetroxide (wt/vol). After a further hour on ice, the cell pellet was embedded in hard Epon and 1-µm slides were cut and stained with 1% toluidine blue and 1% borax (wt/vol). Cell abnormalities were assessed by microscopy using a Leica DM6B light microscope (Leica Microsystems B.V., Amsterdam, the Netherlands) at 100× magnification.

Haemolysis assay = format: cell-based, sheep; settings: sheep, sheep red blood cells, 2% suspension; read-out: RBC hemolysis
Protocol: The hemolysis assay was adapted from the study by Evans et al. ([65]). Briefly, sheep RBC 10% washed pooled cells in PBS (Rockland Immunochemicals, Limerick, PA, USA) were diluted 1:5 to give a final concentration of 2% RBCs in PBS. […] A non-treated control, 1% DMSO (vehicle control), and complete cell lysis control (Triton-X 2%) were included in each assay. After exposure samples were centrifuged at 4°C at 1,000 g for 15 min and 100 µL of supernatant transferred to a clean well in a 96-well, clear, flat-bottom plate (Corning Incorporated). Released hemoglobin was measured by absorption at 540 nm using a Spectramax M5 plate reader. The experiments were performed in quadruplicate. The percentage of hemolysis was calculated as follows:
Hemolysis=A540nm,testcondition−A540nm,DMSOcontrol/A540nm,TritonXControl−A540nm,DMSOcontrol

Row | Compound | IC50 (Hsp90α) | Morphological changes of HEK293 cells (HEK293 cells) | hemolysis at 30 min (Haemolysis assay)
1 | Oc1ccc(-c2n[nH]c(C(F)(F)F)c2-c2ccc(Cl)cc2)c(O)c1 [DPP-5] | 496 nM | membrane blebbing | 100%
2 | COc1ccc(-c2[nH]nc(C(F)(F)F)c2-c2ccc(Cl)cc2)c(O)c1 [DPP-6] | 798 nM | membrane blebbing | 100%
3 | COc1ccc(-c2c(C(F)(F)F)n[nH]c2-c2ccc(O)cc2O)cc1 [DPP-12] | 574 nM |  | 
4 | COc1ccc(-c2c(C(F)(F)F)n[nH]c2-c2ccc(OC)cc2O)cc1 [DPP-13] | 838 nM |  | 
